Data taken from patent publication US10407381B2 (THE BOARD OF TRUSTEES OF THE UNIVERSITY OF ILLINOIS, priority 2015, dated 2019).
pEC50: −log10 of the molar value.

Assays:
5-HT2C receptor = biological target: T1, 5-HT2C receptor (Homo sapiens, UniProt P28335); details: cited from earlier work; for selectivity for 5-HT2C relative to 5-HT2B: 5-HT2C versus 5-HT2B
T1 sequence (P28335 33-458): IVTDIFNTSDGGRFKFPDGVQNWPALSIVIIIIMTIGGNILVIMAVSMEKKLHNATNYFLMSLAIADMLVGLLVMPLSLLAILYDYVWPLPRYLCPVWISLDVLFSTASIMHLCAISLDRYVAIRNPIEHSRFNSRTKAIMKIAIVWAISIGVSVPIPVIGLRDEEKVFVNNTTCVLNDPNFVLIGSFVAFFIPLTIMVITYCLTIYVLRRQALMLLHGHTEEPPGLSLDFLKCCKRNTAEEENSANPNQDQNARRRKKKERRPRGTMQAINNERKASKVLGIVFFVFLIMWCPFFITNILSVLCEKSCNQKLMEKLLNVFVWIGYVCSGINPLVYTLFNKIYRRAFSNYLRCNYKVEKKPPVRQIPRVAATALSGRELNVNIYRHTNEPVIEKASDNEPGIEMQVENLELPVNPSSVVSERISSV

5-HT2B = 5-HT2B (Homo sapiens, UniProt P41595); details: background, reported values; cited from earlier work
[1] = clinical trials, compared to the placebo group; cited from earlier work
5-HT2A [2] = biological target: T2, 5-HT2A (Homo sapiens, UniProt P28223); assay: Calcium flux (FLIPR) assay, human 5-HT2A stably expressed in HEK-293 (Flp-In-293) cells; details: read-out: 5-HT2A Emax Std. Error
Target sequence in this assay (P28223 whole entry): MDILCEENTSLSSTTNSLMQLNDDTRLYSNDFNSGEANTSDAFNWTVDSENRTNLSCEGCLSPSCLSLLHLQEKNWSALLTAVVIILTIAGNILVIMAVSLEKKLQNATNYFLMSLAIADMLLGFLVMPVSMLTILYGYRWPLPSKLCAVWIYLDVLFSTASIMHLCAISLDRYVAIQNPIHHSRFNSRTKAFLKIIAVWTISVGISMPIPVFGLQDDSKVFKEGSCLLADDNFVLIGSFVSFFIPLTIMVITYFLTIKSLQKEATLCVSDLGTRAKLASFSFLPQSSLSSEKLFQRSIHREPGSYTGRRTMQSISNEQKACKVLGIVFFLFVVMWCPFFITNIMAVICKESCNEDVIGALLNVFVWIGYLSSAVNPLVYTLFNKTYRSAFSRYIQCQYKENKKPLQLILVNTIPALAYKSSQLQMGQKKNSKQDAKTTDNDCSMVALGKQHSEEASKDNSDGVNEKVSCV

human 5-HT2C-INI = biological target: T3, human 5-HT2C-INI (Homo sapiens, UniProt P28335); assay: Calcium flux (FLIPR) assay, human 5-HT2C-INI stably expressed in HEK-293 (Flp-In-293) cells
T3 sequence (P28335 33-458): T1 sequence (P28335 33-458)

5-HT2A [3] = biological target: T2, 5-HT2A; details: background, cited from earlier work
Target sequence in this assay (P28223 whole entry, species assumed): as the sequence (P28223 whole entry) above

[4] = 10-60 mg/kg; cited from earlier work
[5] = several animal models; cited from earlier work

Chain of 5-HT2B (P41595 whole entry, species assumed): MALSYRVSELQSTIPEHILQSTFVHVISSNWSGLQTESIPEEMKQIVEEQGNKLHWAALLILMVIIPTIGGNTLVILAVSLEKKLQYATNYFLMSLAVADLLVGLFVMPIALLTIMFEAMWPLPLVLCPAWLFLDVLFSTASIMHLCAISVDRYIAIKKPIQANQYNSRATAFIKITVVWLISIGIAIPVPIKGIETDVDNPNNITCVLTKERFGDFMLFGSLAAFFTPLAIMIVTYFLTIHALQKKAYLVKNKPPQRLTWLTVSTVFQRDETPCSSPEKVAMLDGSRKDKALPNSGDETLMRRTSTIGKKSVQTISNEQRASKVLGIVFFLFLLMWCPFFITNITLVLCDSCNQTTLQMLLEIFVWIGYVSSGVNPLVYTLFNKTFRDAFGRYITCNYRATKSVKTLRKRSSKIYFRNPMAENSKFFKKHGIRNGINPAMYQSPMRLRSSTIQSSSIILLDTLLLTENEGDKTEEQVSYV

Clc1cccc(COc2cncc(N3CCNCC3)n2)c1 [CP-809,101]
selectivity for 5-HT2C relative to 5-HT2B (5-HT2C receptor): about 600 fold | Emax at 5-HT2C (5-HT2C receptor; background, reported values): 93% | Emax at 5-HT2B (5-HT2B): 57%

C[C@H]1CNCCc2ccc(Cl)cc21 [lorcaserin, reference compound]
incidence of cardiac valve disorders [1]: higher incidence of cardiac valve disorders | Emax (5-HT2A [2]): 68% | Emax, % 5-HT 5-HT2C (human 5-HT2C-INI; human 5-HT2C-INI in HEK-293 cells, FLIPR, normalized to 5-HT): (99%) % 5-HT | Emax (human 5-HT2C-INI; read-out: 5-HT2C Emax Std. Error): 99%

Cc1cccc(C2CC2CN)c1 (stereo not shown)
selectivity over 5-HT(2A) (5-HT2C receptor; 5-HT2C versus 5-HT2A): 120 fold | selectivity for 5-HT2C relative to 5-HT2B (5-HT2C receptor): 14 fold | pEC50 (5-HT2C receptor; background, reported values): 8.32 | pEC50 (5-HT2B): 7.19 | pEC50 (5-HT2A [3]; reported values): 6.23 | antidepressant-like effects [4]: moderate antidepressant-like effects

c1cc2c3c(c1)[C@H]1CCC[C@H]1N3CCNC2 [WAY-163909]
Emax at 5-HT2B (5-HT2B): 40% | agonist activity at 5-HT2A (5-HT2A [3]; reported): no agonist activity | preclinical antipsychotic-like activity [5]: good preclinical antipsychotic-like activity
